Key:
[1] = etching rate (dissolution rate) of a deposited layer in the IPA/water mixed solvent; type: physicochemical; conditions: IPA 60 wt %; for etching rate: layer of the compound, polar solvent: IPA/water mixed solvent
Description: In the present invention, a larger etching rate means a higher dissolution rate. In addition, a larger etching rate means a higher solubility of a layer having a material of interest in the solvent (polar solvent).
FIG. 3 is a graph illustrating thickness changes in the compound 1 and the compound A2 over an etching time. Here, FIG. 3 illustrates the results of the etching of the respective layers when a mixed solvent obtained by mixing isopropyl alcohol (IPA) and water so that IPA may account for 60 wt % (hereinafter, sometimes referred to as “IPA/water mixed solvent”) is used as a polar solvent.
On the other hand, the thickness of a layer (layer B) formed of the compound A2 as a heterocyclic compound reduces over time. When the etching rates of the respective layers are calculated with their etching conditions made identical to each other, the etching rate of the layer A is 0.008 nm/sec but the etching rate of the layer B is 0.87 nm/sec, that is, a ratio of the latter to the former is about 100.
Here, a ratio (n) between the etching rates of the uppermost layer (layer A) of the organic compound layer and the lowermost layer (layer B) of the release layer by the polar solvent used upon removal of the release layer under the same temperature conditions can be represented like the following equation.
Next, the photosensitive resin layer 41 was removed by performing dry etching with oxygen as a reactant gas under the conditions of a flow rate of 20 sccm, a pressure of 8 Pa, and an output of 150 W (FIG. 2L). Next, the release layer 30 was removed with a mixed solvent obtained by mixing water and IPA so that an IPA concentration was 60 wt % (FIG. 2M). It should be noted that as the etching rate of the compound (phenanthroline derivative represented by the formula (2)) constituting the release layer 30 in this example was 0.9 nm/sec, the release layer 30 was removed through immersion in the mixed solvent for 600 seconds. Next, vacuum heating was performed at 80° C. so that the solvent remaining on the organic compound layer was removed. It should be noted that the etching rate of the compound represented by the formula (1) serving as the uppermost layer of the organic compound layer placed in each sub-pixel for the polar solvent used for removing the release layer is about 0.0045 nm/sec, which is sufficiently small as compared with the etching rate of the release layer 30.

[2] = solubility in the IPA/water mixed solvent (FIG. 4); type: physicochemical; conditions: IPA/water mixed solvent having an IPA concentration of 80 wt %
Description: The solubility of a compound as a constituent material for each layer in the IPA/water mixed solvent varies depending on the weight ratio of IPA in the mixed solvent. FIG. 4 is a graph illustrating the solubilities of the compound 1 (condensed polycyclic hydrocarbon compound) and the compound A2 (heterocyclic compound) in the IPA/water mixed solvent (polar solvent). Here, in the graph of FIG. 4, the axis of abscissa indicates the weight percent concentration of IPA in the IPA/water mixed solvent, and the axis of ordinate indicates the amount of the condensed polycyclic hydrocarbon compound or heterocyclic compound to dissolve in 1 g of the solvent.

Row | etching rate [1] | Compound | other results
1 | 0.87 nm/s | CC1(C)c2ccccc2-c2ccc(-c3ccc4ccc5ccc(-c6ccc7c(c6)C(C)(C)c6ccccc6-7)nc5c4n3)cc21 [compound A2] | etching rate ratio (n) of layer B (release layer) to layer A (uppermost organic compound layer) ([1]; compound A2 layer versus compound 1 layer, IPA/water mixed solvent, identical etching conditions): about 100; etching rate ([1]; listed as formula (2)): 0.9 nm/s; amount to dissolve in 1 g of the solvent [2]: 73 µg
2 | 1.6 nm/s | c1ccc(-n2c(-c3cc(-c4nc5ccccc5n4-c4ccccc4)cc(-c4nc5ccccc5n4-c4ccccc4)c3)nc3ccccc32)cc1 [compound A7] | 
3 | 1.5 nm/s | O=C1c2ccccc2OC2C=CC(c3cccc(-c4cccc(-c5cc(-c6cccc(-c7ccccc7)c6)cc(-c6cccc(-c7ccccc7)c6)c5)c4)c3)=CC12 (stereo not drawn) [compound Cl] | 
4 | 2.5 nm/s | O=S(=O)(Oc1ccc2cc(-c3ccc4ccccc4c3)ccc2c1)C(F)(F)F [compound D6] | 

Row | Compound | etching rate [1] | other results
5 | CC1(C)c2cc(-c3ccc4ccc5cccc6ccc3c4c56)ccc2-c2ccc(-c3ccc4ccc5cccc6ccc3c4c56)cc21 [compound 1] | 0.008 nm/s | etching rate ([1]; listed as formula (1)): about 0.0045 nm/sec; amount to dissolve in 1 g of the solvent [2]: 5 µg
6 | c1ccc(-c2cc(-c3ccccc3)cc(-c3cccc(-c4cccc(-c5ccc6c7ccccc7c7ccccc7c6c5)c4)c3)c2)cc1 [compound B1] | 1.3 nm/s | 
7 | CC(C)(C)c1cc2ccc3ccc(B4OC(C)(C)C(C)(C)O4)c4ccc(c1)c2c34 [compound D8] | 3.0 nm/s | 

From patent US20120274239A1, “METHOD OF MANUFACTURING ORGANIC ELECTROLUMINESCENCE DISPLAY DEVICE AND ELECTRONIC EQUIPMENT INCLUDING ORGANIC ELECTROLUMINESCENCE DISPLAY DEVICE MANUFACTURED BY THE MANUFACTURING METHOD” (CANON KABUSHIKI KAISHA, priority 2011, published 2012)
